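Assay format: 96-well plates, 48-hour exposure. TGI is the concentration that stops growth completely.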

Among the test systems are SF-295 CNS; U251 CNS; UACC-257 melanoma; HCC-2998 colon; OVCAR-5 ovarian; EKVX NSCLC; SW-620 colon; SNB-75 CNS; NCI-H226 lung; SK-OV-3 ovarian; HT29 colon; SF-539 CNS; CCRF-CEM leukemia; NCI-H23 lung; IGROV1 ovarian; RXF 393 renal; LOX IMVI melanoma; HCT-15 colon; HOP-62 NSCLC; CAKI-1 renal.
Assay in all cases: NCI tumour cell line growth inhibition, 48 h

Take `Nc1ccccc1Sc1ccc(Cl)cc1`: the TGI was over 100 µM in the assay with SF-295 CNS; 36.2 µM with U251 CNS; 54.1 µM in the assay with UACC-257 melanoma; over 100 µM in the assay on HCC-2998 colon; over 100 µM in the assay with OVCAR-5 ovarian; 76.9 µM in the assay with EKVX NSCLC. For the same molecule, the TGI with SW-620 colon is over 100 µM; in the assay with SNB-75 CNS it was 88.9 µM; with NCI-H226 lung, 26.2 µM; in the assay on SK-OV-3 ovarian, over 100 µM; in the assay with HT29 colon, 36.3 µM; in the assay on SF-539 CNS it was over 100 µM. For the same molecule, the TGI with CCRF-CEM leukemia was 46.6 µM; in the assay on NCI-H23 lung, 64.4 µM; with IGROV1 ovarian, over 100 µM; in the assay with RXF 393 renal, 32.1 µM; in the assay with LOX IMVI melanoma it was over 100 µM; with HCT-15 colon, over 100 µM. The molecule further displayed a TGI with HOP-62 NSCLC of over 100 µM.
On to `CCCCN(CCCC)c1ccc(N=Nc2ccc(S(=O)(=O)O)cc2)cc1`, for which the TGI in the assay on SF-295 CNS was over 100 µM; in the assay on U251 CNS, over 100 µM; in the assay with UACC-257 melanoma it was over 100 µM; with HCC-2998 colon, 73.7 µM; with OVCAR-5 ovarian it was over 100 µM; in the assay with EKVX NSCLC it was over 100 µM. The TGI in the assay on SW-620 colon is over 100 µM; in the assay on SNB-75 CNS it was 39.2 µM; in the assay with SK-OV-3 ovarian, over 100 µM; with CAKI-1 renal, 49.6 µM; with HT29 colon, 85.1 µM; in the assay on SF-539 CNS it was 33.4 µM. In addition, the TGI in the assay on CCRF-CEM leukemia worked out at 38.4 µM; in the assay on NCI-H23 lung it was 47.2 µM; with IGROV1 ovarian, 43.1 µM; with RXF 393 renal, 29.8 µM; in the assay on LOX IMVI melanoma, 42.8 µM; with HCT-15 colon, 40.4 µM.
As to `C/C(=C1/N=C(c2cc([N+](=O)[O-])ccc2Cl)N(C2=CC=C(Cl)CC2)C1=O)c1cc2ccccc2oc1=O`, the TGI in the assay on SF-295 CNS, in the assay on U251 CNS, with UACC-257 melanoma, with HCC-2998 colon, in the assay with OVCAR-5 ovarian and in the assay on EKVX NSCLC was over 100 µM throughout. Further, the TGI in the assay with SW-620 colon, with SNB-75 CNS, in the assay with NCI-H226 lung, in the assay on SK-OV-3 ovarian, with CAKI-1 renal and in the assay on HT29 colon was over 100 µM throughout. Also, the TGI in the assay on SF-539 CNS was over 100 µM; with CCRF-CEM leukemia, over 100 µM; with NCI-H23 lung, 58.8 µM; with IGROV1 ovarian it was over 100 µM; in the assay with LOX IMVI melanoma, over 100 µM; in the assay with HOP-62 NSCLC, over 100 µM.
For `Cc1cc(S(N)(=O)=O)c(S/C(=N\Nc2ccc([N+](=O)[O-])cc2)c2ccc(Cl)cc2)cc1Cl`, the TGI in the assay with SF-295 CNS was 5.46 µM; with U251 CNS it was 5.41 µM; in the assay on UACC-257 melanoma, 8.7 µM; in the assay with EKVX NSCLC, 28.3 µM; in the assay with SW-620 colon, over 100 µM; in the assay on SNB-75 CNS it was 4.01 µM. Also, the TGI was 6.57 µM with NCI-H226 lung; 3.93 µM in the assay on SK-OV-3 ovarian; 14.9 µM in the assay with CAKI-1 renal; 4.36 µM in the assay on HT29 colon; 4.19 µM in the assay on SF-539 CNS; over 100 µM with CCRF-CEM leukemia. The TGI was 4.91 µM in the assay with NCI-H23 lung; 12.8 µM in the assay with IGROV1 ovarian; 3.49 µM in the assay on RXF 393 renal; 77.9 µM with HCT-15 colon; over 100 µM in the assay with HOP-62 NSCLC.
Regarding `CC1=CC[C@H](C)C(C)(C)C1/C=C/C(C)=C/CC[C@@]1(CO)[C@H](CCCO)/C(=C(/C)C=O)CC[C@]1(C)O` (some centres undefined), the TGI worked out at 13.9 µM in the assay on SF-295 CNS; 12.9 µM in the assay with U251 CNS; 28.8 µM in the assay on UACC-257 melanoma; 4.41 µM in the assay with HCC-2998 colon; 38.2 µM in the assay on OVCAR-5 ovarian; 4.48 µM in the assay with EKVX NSCLC. Moreover, the TGI in the assay with SW-620 colon was 12.5 µM; in the assay with NCI-H226 lung it was 14.4 µM; with SK-OV-3 ovarian it was 39.9 µM; in the assay on CAKI-1 renal, 10.5 µM; in the assay on HT29 colon it was 12.1 µM; in the assay on SF-539 CNS it was 20.8 µM. Moreover, the TGI in the assay on CCRF-CEM leukemia is 24.9 µM; in the assay with NCI-H23 lung it was 23 µM; with IGROV1 ovarian, 24.7 µM; in the assay on RXF 393 renal it was 28.1 µM; in the assay on LOX IMVI melanoma it was 15.7 µM; in the assay with HCT-15 colon, 20.4 µM.
For the molecule `COc1cccc(NC(=O)N/C(=C/c2ccc(N(CCC#N)CCC#N)cc2)NC(=O)c2cc([N+](=O)[O-])ccc2Cl)c1`, the TGI in the assay with SF-295 CNS, in the assay with U251 CNS, with OVCAR-5 ovarian, in the assay on EKVX NSCLC, in the assay on NCI-H226 lung and in the assay with SK-OV-3 ovarian was over 100 µM each time. The TGI with CAKI-1 renal, in the assay on SF-539 CNS, in the assay with CCRF-CEM leukemia, with NCI-H23 lung, with IGROV1 ovarian and in the assay on RXF 393 renal was over 100 µM each time. In addition, the TGI in the assay with LOX IMVI melanoma, with HCT-15 colon and with HOP-62 NSCLC was over 100 µM each time.
Regarding `CC(=O)/C=C/c1c[nH]c(=O)[nH]c1=O`, the TGI worked out at 751 µM in the assay with SF-295 CNS; 503 µM in the assay with U251 CNS; 641 µM in the assay with UACC-257 melanoma; 480 µM in the assay with HCC-2998 colon; 618 µM in the assay with OVCAR-5 ovarian; 570 µM with EKVX NSCLC. In addition, the TGI in the assay on SW-620 colon is 696 µM; in the assay on SNB-75 CNS, 681 µM; with NCI-H226 lung it was 565 µM; with SK-OV-3 ovarian, 703 µM; with CAKI-1 renal, 178 µM; in the assay with HT29 colon, 847 µM. Further, the TGI in the assay with SF-539 CNS worked out at 601 µM; in the assay with CCRF-CEM leukemia it was 649 µM; in the assay with NCI-H23 lung, 745 µM; in the assay on IGROV1 ovarian it was 861 µM; in the assay with RXF 393 renal, 416 µM; in the assay on LOX IMVI melanoma, 354 µM. Moreover, the figures for the TGI with HCT-15 colon and in the assay on HOP-62 NSCLC were 523 µM and 765 µM, respectively.
Take `O=C(COC(=O)c1ccccc1)c1ccc(Br)cc1`: the TGI with SF-295 CNS turned out to be 32 µM; in the assay with U251 CNS, 27.3 µM; in the assay on UACC-257 melanoma it was 28.8 µM; in the assay with HCC-2998 colon it was 26.9 µM; in the assay with OVCAR-5 ovarian it was 22.8 µM; in the assay on EKVX NSCLC it was 28 µM. Besides, the TGI in the assay with SW-620 colon was determined as 21.8 µM; with SNB-75 CNS, 29.9 µM; in the assay with SK-OV-3 ovarian, 33.3 µM; with CAKI-1 renal, 6.44 µM; with HT29 colon it was 46.3 µM; in the assay with SF-539 CNS, 28.4 µM. For the same molecule, the TGI with CCRF-CEM leukemia worked out at 25.9 µM; with NCI-H23 lung, 49.2 µM; with IGROV1 ovarian, 3.59 µM; in the assay with RXF 393 renal, 11.6 µM; in the assay with LOX IMVI melanoma, 11.2 µM; in the assay on HCT-15 colon, 35.1 µM. Also, in the assay on HOP-62 NSCLC, the TGI came to 43.8 µM.

These data come from PubChem BioAssay (NCI).
